# Experimental data taken from paper PMC8224038, “Anti-Leukemic Properties of Aplysinopsin Derivative EE-84 Alone and Combined to BH3 Mimetic A-1210477” (Marine Drugs, 2021).
# Read-outs that look alike come from different tables or passages of the source.
# Assays:
# K562 cells [1] = assay: Trypan blue exclusion test, proliferation (GI50); assay type: cell-based, human; conditions: Homo sapiens
# Description: (§1) Cell proliferation and viability were assessed by the trypan blue exclusion method (Lonza), and viable cells were counted using a hematocytometer (Marienfeld, Lauda-Königshofen, Germany). Differential toxicity was calculated by comparing the viability of RPMI 1788 cells to the viability of cancer cells (normal/cancer cells). The difference in viability was expressed in terms of fold change.
# RPMI 1788 [2] = assay: Trypan blue exclusion test, proliferation (GI50) in noncancerous cells; assay type: cell-based, human; conditions: Homo sapiens
# Description: as §1
# RPMI 1788 [3] = assay: Trypan blue exclusion test, viability (IC50) in noncancerous cells; assay type: cell-based, human; conditions: for IC50: Homo sapiens, read-out: IC50 (50% cell death)
# Description: as §1
# K562 cells [4] = assay: Trypan blue exclusion test, viability; assay type: cell-based, human; conditions: Homo sapiens
# Description: as §1
# K562IR cells = assay: Trypan blue exclusion test, viability; assay type: cell-based; conditions: Homo sapiens, 24 h
# Description: as §1
# K562 cells [5] = assay: Annexin V APC/PI staining quantified by FACS; assay type: cell-based, human
# Description: (§2) The percentage of apoptotic cells was quantified as the fraction of cells showing fragmented nuclei, as assessed by fluorescence microscopy (Nikon, Tokyo, Japan) after staining with Hoechst 33342 (Sigma-Aldrich) and propidium iodide (Sigma-Aldrich). In addition, apoptosis was confirmed by Annexin V APC (Biolegend, 640919)/propidium iodide (BD Biosciences, 556547) staining and fluorescence-activated cell sorter (FACS) analysis according to the manufacturer protocol (BD Biosciences, 556547).
# K562 cells [6] = assay: Hoechst/PI staining by fluorescent microscopy; assay type: cell-based, human; conditions: K562, 50 μM, 72 h
# Description: as §2
# K562 cells [7] = assay: Cell cycle analysis (PI, FACS); assay type: cell-based, human
# Description: Cells were collected and fixed in 70% ethanol. DNA was stained with propidium iodide (PI) solution (1 μg/mL, Sigma-Aldrich, St. Louis, MO, USA) in 1XPBS (Biosesang, Seongnam, Korea) for 30 min at 37 °C, supplemented with RNase A (100 μg/mL, Roche, Basel, Switzerland). Samples were analyzed by flow cytometry using the FACSCalibur^TM system, Becton Dickinson (BD) Biosciences (San Jose, CA, USA). Data were recorded statistically (10,000 events/sample) using the Cell Quest software (BD Biosciences) and analyzed using Flow-Jo 8.8.5 software (Tree Star, Inc., Ashland, OR, USA).
# PBMCs = assay: Toxicity test in nonproliferating and proliferating PBMCs (trypan blue); assay type: cell-based, human; conditions: 24, 48, 72 h
# Description: Peripheral blood mononuclear cells (PBMCs) were isolated by density gradient centrifugation using Ficoll-Hypaque (GE Healthcare, Roosendaal, The Netherlands) from freshly collected buffy coats as previously described, obtained from healthy adult human volunteers (Red Cross, Luxembourg City, Luxembourg) after ethical approval as well as written informed consent from each volunteer. After isolation, cells were incubated overnight at 2 × 10^6 cells/mL in RPMI 1640 (supplemented with 1% antibiotic–antimycotic and 10% FCS (BioWhittaker, Verviers, Belgium) at 37 °C and 5% CO2 in a humidified atmosphere. The day after, cell concentration was adjusted at 1 × 10^6 cells/mL using the same fresh complete medium and then treated as indicated.
# as §1
# K562 [8] = assay: Methocult colony formation assay; assay type: cell-based, human; conditions: K562, 48-h pretreatment
# Description: For 48 h pretreatment of EE-84 colony formation assays, approximately 3 × 10^5 cells were seeded in each well of a 24-well plate, treated with EE-84 at indicated concentrations, and incubated at 37 °C and 5% of CO2 in a humidified atmosphere for 48 h. After 48 h, 1000 cells were counted and grown in a semisolid methylcellulose medium (Methocult H4230, StemCell Technologies Inc., Vancouver, BC, Canada) supplemented with 10% FBS. Colonies were detected after 10 days of culture by adding 1 mg/mL of 3-(4,5-dimethylthiazol-2-yl)-2,5-diphenyltetrazolium bromide (MTT) reagent (Sigma-Aldrich) and were analyzed by Image J 1.8.0 software (U.S. National Institute of Health, Bethesda, MD, USA).
# K562 [9] = assay: Seahorse XFp Cell Mito Stress test (OCR); assay type: cell-based, human; conditions: K562, EE-84 30 µM, 72 h, vs control
# Description: The oxygen consumption rate (OCR) was measured using a Seahorse XFp Cell Mito Stress Assay (#103010-100, Agilent Technologies, Seoul, Korea) ran on a Seahorse XFp analyzer (Agilent Technologies, Seoul, Korea) according to the manufacturer’s instructions. […] Before measurements, plates were equilibrated in a CO2-free incubator at 37 °C for 1 h. The analysis was performed using 1.5 µM oligomycin, 0.5 µM carbonyl cyanide-4-(trifluoromethoxy)phenylhydrazone (FCCP), and 1 µM rotenone/antimycin A as indicated. Data were analyzed using the Seahorse XF Cell Mito Stress Test report generator software (Agilent). The extracellular acidification rate (ECAR) was measured in response to the sequential injection of 10 mM glucose, 2 µM oligomycin (H+-ATP-synthase inhibitor), and 50 mM 2-deoxy-d-glucose (2DG) (hexokinase inhibitor) to detect non-glycolytic acidification, glycolysis, maximal glycolytic capacity, and glycolytic reserve using a Seahorse XFp analyzer with a Glycolysis Stress Test kit (Agilent, Santa Clara, CA, USA).
# [10] = K562, 24 h, EE-84 30 μM, with z-VAD-fmk (50 μM)
structure (smiles),measurement,setting,value
"COc1ccc2c(c1)c(C(=O)C(=O)Nc1sc3c(c1C(C)=O)CC(C)CC3)cn2Cc1ccccc1 (stereo not shown) [EE-84, N-(3-Acetyl-4,5,6,7-Tetrahydro-5-Methylbenzo[b]Thiophen-2-yl)-2-(1-Benzyl-5-Methoxy-1H-Indol-3-yl)-2-Oxoacetamide]",GI50,"K562 cells [1]; K562, 48 h",32.2 ± 3.91 µM
same,GI50,"K562 cells [1]; K562, 72 h",19.1 ± 0.8 µM
same,GI50,"RPMI 1788 [2]; RPMI 1788, 24 h",> 50 µM
same,GI50,"RPMI 1788 [2]; RPMI 1788, 48 h",> 50 µM
same,GI50,"RPMI 1788 [2]; RPMI 1788, 72 h",40.1 ± 3.79 µM
same,IC50,"RPMI 1788 [3]; RPMI 1788, 24 h",> 50 µM
same,IC50,"RPMI 1788 [3]; RPMI 1788, 48 h",> 50 µM
same,IC50,"RPMI 1788 [3]; RPMI 1788, 72 h",> 50 µM
same,differential toxicity RPMI-1788/K562 cells,"RPMI 1788 [3]; at 40 and 50 µM, viability normal/cancer cells",significant differential toxicity
same,viability of RPMI 1788 cells,"RPMI 1788 [3]; up to 50 µM, Figure S4B",did not significantly affect
same,viability at 30 µM,"K562 cells [4]; K562, EE-84 30 μM 48 h with Baf-A1 (40 nM) post-treatment for last 8 h, read-out: cell viability",89%
same,viability at 30 µM,"K562 cells [4]; K562, EE-84 30 µM, 24 h, read-out: Viability (24 h)",98 ± 1%
same,viability at 30 µM,"K562 cells [4]; K562, EE-84 30 μM, 48 h, alone, read-out: cell viability",98.7%
same,viability at 50 µM,"K562 cells [4]; K562, EE-84 50 µM, 24 h",96 ± 0.7%
same,viability at 30 µM,K562IR cells; EE-84 30 µM,95.3 ± 0.6%
same,viability at 50 µM,K562IR cells; EE-84 50 µM,97 ± 2.7%
same,AnnV+/PI+ (%),"K562 cells [5]; K562, 24 h, EE-84 30 μM",2.98 ± 0.23%
same,AnnV+/PI− (%),"K562 cells [5]; K562, 24 h, EE-84 30 μM",6.00 ± 1.43%
same,Combined cell death (%),"K562 cells [5]; K562, 24 h, EE-84 30 μM",8.98 ± 2.14%
same,AnnV+/PI+ (%),K562 cells [5]; [10],3.13 ± 0.21%
same,AnnV+/PI− (%),K562 cells [5]; [10],5.33 ± 1.35%
same,Combined cell death (%),K562 cells [5]; [10],8.46 ± 1.55%
same,AnnV+/PI+ (%),"K562 cells [5]; K562, EE-84 10 μM (Figure 3B)",2.50 ± 0.62%
same,AnnV+/PI− (%),"K562 cells [5]; K562, EE-84 10 μM (Figure 3B)",7.05 ± 1.46%
same,Combined cell death (%),"K562 cells [5]; K562, EE-84 10 μM (Figure 3B)",9.55 ± 3.22%
same,AnnV+/PI+ (%),"K562 cells [5]; K562, EE-84 20 μM (Figure 3B)",4.40 ± 0.94%
same,AnnV+/PI− (%),"K562 cells [5]; K562, EE-84 20 μM (Figure 3B)",5.60 ± 1.98%
same,Combined cell death (%),"K562 cells [5]; K562, EE-84 20 μM (Figure 3B)",10.00 ± 0.85%
same,AnnV+/PI+ (%),"K562 cells [5]; K562, EE-84 30 μM (Figure 3B)",7.51 ± 2.70%
same,AnnV+/PI− (%),"K562 cells [5]; K562, EE-84 30 μM (Figure 3B)",6.65 ± 2.29%
same,Combined cell death (%),"K562 cells [5]; K562, EE-84 30 μM (Figure 3B)",14.16 ± 0.61%
same,AnnV+/PI+ (%),"K562 cells [5]; K562, EE-84 40 μM (Figure 3B)",8.97 ± 1.03%
same,AnnV+/PI− (%),"K562 cells [5]; K562, EE-84 40 μM (Figure 3B)",7.71 ± 2.10%
same,Combined cell death (%),"K562 cells [5]; K562, EE-84 40 μM (Figure 3B)",16.68 ± 0.89%
same,AnnV+/PI+ (%),"K562 cells [5]; K562, EE-84 50 μM (Figure 3B)",8.25 ± 1.95%
same,AnnV+/PI− (%),"K562 cells [5]; K562, EE-84 50 μM (Figure 3B)",8.22 ± 3.12%
same,propidium iodide (PI)-positive cells without nuclear fragmentation,K562 cells [6],11.0 ± 4.23%
same,G1 cell cycle phase,"K562 cells [7]; K562, 48 h, EE-84 10 μM",59.59 ± 1.12%
same,G2/M cell cycle phase,"K562 cells [7]; K562, 48 h, EE-84 10 μM",18.64 ± 0.75%
same,S cell cycle phase,"K562 cells [7]; K562, 48 h, EE-84 10 μM",20.30 ± 1.68%
same,Sub-G1 cell cycle phase,"K562 cells [7]; K562, 48 h, EE-84 10 μM",1.48 ± 0.81%
same,G1 cell cycle phase,"K562 cells [7]; K562, 48 h, EE-84 30 μM",61.11 ± 1.58%
same,G2/M cell cycle phase,"K562 cells [7]; K562, 48 h, EE-84 30 μM",13.25 ± 0.32%
same,S cell cycle phase,"K562 cells [7]; K562, 48 h, EE-84 30 μM",20.99 ± 0.83%
same,Sub-G1 cell cycle phase,"K562 cells [7]; K562, 48 h, EE-84 30 μM",4.65 ± 2.42%
same,G1 cell cycle phase,"K562 cells [7]; K562, 48 h, EE-84 50 μM",58.40 ± 2.81%
same,G2/M cell cycle phase,"K562 cells [7]; K562, 48 h, EE-84 50 μM",12.86 ± 1.46%
same,S cell cycle phase,"K562 cells [7]; K562, 48 h, EE-84 50 μM",20.41 ± 1.84%
same,Sub-G1 cell cycle phase,"K562 cells [7]; K562, 48 h, EE-84 50 μM",8.34 ± 1.51%
same,G1 cell cycle phase,"K562 cells [7]; K562, 72 h, EE-84 10 μM",60.83 ± 2.33%
same,G2/M cell cycle phase,"K562 cells [7]; K562, 72 h, EE-84 10 μM",17.57 ± 0.90%
same,S cell cycle phase,"K562 cells [7]; K562, 72 h, EE-84 10 μM",17.52 ± 4.24%
same,Sub-G1 cell cycle phase,"K562 cells [7]; K562, 72 h, EE-84 10 μM",4.08 ± 2.80%
same,G1 cell cycle phase,"K562 cells [7]; K562, 72 h, EE-84 30 μM",55.09 ± 2.26%
same,G2/M cell cycle phase,"K562 cells [7]; K562, 72 h, EE-84 30 μM",17.03 ± 2.69%
same,S cell cycle phase,"K562 cells [7]; K562, 72 h, EE-84 30 μM",21.55 ± 1.64%
same,Sub-G1 cell cycle phase,"K562 cells [7]; K562, 72 h, EE-84 30 μM",6.33 ± 0.74%
same,G1 cell cycle phase,"K562 cells [7]; K562, 72 h, EE-84 50 μM",52.03 ± 2.99%
same,G2/M cell cycle phase,"K562 cells [7]; K562, 72 h, EE-84 50 μM",15.08 ± 2.89%
same,S cell cycle phase,"K562 cells [7]; K562, 72 h, EE-84 50 μM",19.85 ± 1.33%
same,Sub-G1 cell cycle phase,"K562 cells [7]; K562, 72 h, EE-84 50 μM",13.03 ± 1.19%
same,toxic effects in nonproliferating and proliferating PBMCs,PBMCs,did not induce toxic effects
same,total surface area and average size of colonies,K562 [8],reduced
same,oxygen consumption rate (OCR),K562 [9],significantly decreased
